Measured values reported in patent US12257247B2 (Monte Rosa Therapeutics AG, priority 2023, dated 2025).
Like-named read-outs stand apart in the source and are kept apart here.

Biological target: T1, VAV1 (Homo sapiens, UniProt P15498+Q96SW2)
T1 construct: A heterozygous VAV1 C-terminal HiBiT knock-in pool was generated at Monte Rosa Therapeutics from a clonal Jurkat cell; endogenous in cells; host or cells: Jurkat clone stably expressing LgBiT, homozygous GSPT1-G575N; heterozygous VAV1-HiBiT knock-in pool
Assay: VAV1 degradation activity, VAV1-HiBiT knock-in Jurkat luminescence assay (Example A, Table 1)
Format: cell-based
Details: VAV1-HiBiT knock-in Jurkat cells, luminescence read at 6 and 24 hours; for Dmax: Jurkat
Method: Cells were plated at 10,000 cells per well using Multiflo (BioTek) or Multi Drop Combi (Thermo Fisher) in 384-well white solid bottom plates (Corning, 3570BC) in 25 ul volume in RPMI 1640 media (Thermo Fischer, 22400105) containing 10% FBS (Corning, 35-075-CV), 1% Penicillin/Streptomycin (ThermoFisher Scientific, 15140-122), and 1% Endurazine (Nano-Glo Endurazine Live Cell Substrate (Promega, N2571)). Cells were incubated for ˜16 hours at 37° C., 5% CO2. 25 nL of a compound at 10 μM were dosed into the plate using an Echo® 650 liquid handler (Labcyte). Cells were incubated at 37° C., 5% CO2 and signal was read at 6 and 24 hours after compound addition on a Pherastar FSX using “LUM plus” optic module.
Analysis was performed in Scinamic (Scinamic, Cambridge, MA). Luminescence response (R) was calculated by the formula: response=100*(S−N)/(P−N) where S is the signal of the well, N and P the mean negative and positive control values respectively of the same plate. The luminescence response was then fitted in Scinamic using a 3-parameter agonist logistic fit (hillslope=1, EC50>0, top/bottom unconstrained).

[1] = read-out: VAV1 DC50 (nM), class

Row | Dmax (read-out: VAV1 Dmax %) [%] | Dmax (read-out: VAV1 Dmax %, class) [%] | DC50 (read-out: VAV1 DC50) [nM] | DC50 [1] [nM] | SMILES
1 | 97.2 | > 90 | 5.24 | ≤ 100 | COC1CCCC(=O)N1c1ccc(-c2cccc(C3CCC(=O)NC3=O)c2Cl)cc1 (centres unmarked) [Compound 318]
2 | 89.3 | 60 to 90 | 11.7 | ≤ 100 | O=C1CCC(c2cccc(-c3ccc(CCn4ccccc4=O)cc3)c2Cl)C(=O)N1 (centres unmarked) [Compound 182, 3-(2-chloro-4′-(2-(2-oxopyridin-1(2H)-yl)ethyl)-[1,1′-biphenyl]-3-yl)piperidine-2,6-dione]
3 | 66.4 | 60 to 90 | 678 | 100 to 1000 | O=C1CCC(c2cccc(-c3ccc(OC4CCOC4)cc3)c2Cl)C(=O)N1 (centres unmarked) [Compound 109]
4 | 97.4 | > 90 | 13.3 | ≤ 100 | O=C1CCC(c2cccc(-c3ccc(Oc4ccccn4)cc3)c2Cl)C(=O)N1 (centres unmarked) [Compound 354, 3-(2-chloro-4′-(pyridin-2-yloxy)-[1,1′-biphenyl]-3-yl)piperidine-2,6-dione]
5 | 95.2 | > 90 | 11.7 | ≤ 100 | O=C1CCC(c2cccc(-c3ccc(Cc4nccc(C(F)F)n4)cc3)c2Cl)C(=O)N1 (centres unmarked) [Compound 348, 3-(2-chloro-4′-((4-(difluoromethyl)pyrimidin-2-yl)methyl)-[1,1′-biphenyl]-3-yl)piperidine-2,6-dione]
6 | 88.1 | 60 to 90 | 22.5 | ≤ 100 | O=C1CCC(c2cccc(-c3ccc(N4CCn5nccc5C4=O)cc3)c2Cl)C(=O)N1 (centres unmarked) [Compound 321]
7 | 96.9 | > 90 | 5.19 | ≤ 100 | O=C1CCC(c2cccc(-c3ccc(N4CCCN(CC(F)F)C4=O)cc3)c2Cl)C(=O)N1 (centres unmarked) [Compound 429, 3-(2-chloro-4′-(3-(2,2-difluoroethyl)-2-oxotetrahydropyrimidin-1(2H)-yl)-[1,1′-biphenyl]-3-yl)piperidine-2,6-dione]
8 | 93.5 | > 90 | 13.9 | ≤ 100 | C[C@@H]1CCC(=O)N1c1ccc(-c2cccc(C3CCC(=O)NC3=O)c2Cl)cc1 (some centres unmarked) [Compound 303]
9 | 55.5 | < 60 | 13800 | > 1000 | Cn1ccc(COc2ccc(-c3ccc(Cl)c(C4CCC(=O)NC4=O)c3F)cc2)n1 (centres unmarked) [Compound 145, 3-(4-chloro-2-fluoro-4′-((1-methyl-1H-pyrazol-3-yl)methoxy)-[1,1′-biphenyl]-3-yl)piperidine-2,6-dione]
10 | 44.7 | < 60 | ≥ 10000 | > 1000 | O=C1CCC(c2cccc(-c3ccc(N4CCC4=O)cc3)c2Cl)C(=O)N1 (centres unmarked) [Compound 163, 3-(2-chloro-4′-(2-oxoazetidin-1-yl)-[1,1′-biphenyl]-3-yl)piperidine-2,6-dione]
11 | 95.3 | > 90 | 7.02 | ≤ 100 | Cn1ncc2c1CCN(c1ccc(-c3cccc(C4CCC(=O)NC4=O)c3Cl)cc1)C2=O (centres unmarked) [Compound 313]
12 | 72 | 60 to 90 | 274 | 100 to 1000 | CC1CCN(c2ccc(-c3cccc(C4CCC(=O)NC4=O)c3Cl)cc2)C1=O (centres unmarked) [Compound 304]
13 | 96.3 | > 90 | 11.6 | ≤ 100 | O=C1CCC(c2cccc(-c3ccc(OCc4cccnc4)cc3)c2Cl)C(=O)N1 (centres unmarked) [Compound 123]
14 | 93.7 | > 90 | 14.4 | ≤ 100 | Cn1cccc(-c2ccc(-c3cccc(C4CCC(=O)NC4=O)c3Cl)cc2)c1=O (centres unmarked) [Compound 225, 3-(2-chloro-4′-(1-methyl-2-oxo-1,2-dihydropyridin-3-yl)-[1,1′-biphenyl]-3-yl)piperidine-2,6-dione]
15 | 90.2 | > 90 | 32.6 | ≤ 100 | O=C1CCC(c2cccc(-c3ccc(CN4C(=O)CCCC4C(F)(F)F)cc3)c2Cl)C(=O)N1 (centres unmarked) [Compound 262]
16 | 95.6 | > 90 | 9.34 | ≤ 100 | Cn1ccc(NCc2ccc(-c3cccc(C4CCC(=O)NC4=O)c3Cl)cc2)n1 (centres unmarked) [Compound 196, 3-(2-chloro-4′-(((1-methyl-1H-pyrazol-3-yl)amino)methyl)-[1,1′-biphenyl]-3-yl)piperidine-2,6-dione]
17 | 90.5 | > 90 | 23 | ≤ 100 | O=C1CCC(c2cccc(-c3ccc(N4CCC5(COC5)CC4=O)cc3)c2Cl)C(=O)N1 (centres unmarked) [Compound 310]
18 | 37.8 | < 60 | ≥ 10000 | > 1000 | CN1CC2(CCC(=O)N2c2ccc(-c3cccc(C4CCC(=O)NC4=O)c3Cl)cc2)C1 (centres unmarked) [Compound 371, 3-(2-chloro-4′-(2-methyl-6-oxo-2,5-diazaspiro[3.4]octan-5-yl)-[1,1′-biphenyl]-3-yl)piperidine-2,6-dione]
19 | 96.2 | > 90 | 9.34 | ≤ 100 | Cc1nc(Cc2ccc(-c3cccc(C4CCC(=O)NC4=O)c3Cl)cc2)no1 (centres unmarked) [Compound 473, 3-(2-chloro-4′-((5-methyl-1,2,4-oxadiazol-3-yl)methyl)-[1,1′-biphenyl]-3-yl)piperidine-2,6-dione]
20 | 77.2 | 60 to 90 | 104 | 100 to 1000 | O=C1CCC(c2cccc(-c3ccc(N4CCCCS4(=O)=O)cc3)c2Cl)C(=O)N1 (centres unmarked) [Compound 220]
21 | 91.7 | > 90 | 18.7 | ≤ 100 | O=C1CCC(c2cccc(-c3ccc4[nH]ccc4c3)c2Cl)C(=O)N1 (centres unmarked) [Compound 482, 3-(2-chloro-3-(1H-indol-5-yl)phenyl)piperidine-2,6-dione]
22 | 77 | 60 to 90 | 920 | 100 to 1000 | O=C1CCC(c2cccc(-c3ccc(C4(n5ccccc5=O)CC4)cc3)c2Cl)C(=O)N1 (centres unmarked) [Compound 241, 3-[2-chloro-3-[4-[1-(2-oxo-1-pyridyl)cyclopropyl]phenyl]phenyl]piperidine-2,6-dione]
23 | 95.8 | > 90 | 6.99 | ≤ 100 | O=C1CCC(c2cccc(-c3ccc(CN4C(=O)CCC45CCC5)cc3)c2Cl)C(=O)N1 (centres unmarked) [Compound 293]
24 | 82.3 | 60 to 90 | 65.3 | ≤ 100 | CN1CC(=O)N(c2ccc(-c3cccc(C4CCC(=O)NC4=O)c3Cl)cc2)CC12CC2 (centres unmarked) [Compound 352, 3-(2-chloro-4′-(4-methyl-6-oxo-4,7-diazaspiro[2.5]octan-7-yl)-[1,1′-biphenyl]-3-yl)piperidine-2,6-dione]
25 | 33.6 | < 60 | ≥ 10000 | > 1000 | O=C1CCC(c2cccc(-c3ccc(CN4CCCCC4=O)nc3)c2Cl)C(=O)N1 (centres unmarked) [Compound 433, 3-(2-chloro-3-(6-((2-oxopiperidin-1-yl)methyl)pyridin-3-yl)phenyl)piperidine-2,6-dione]
26 | 98.2 | > 90 | 3.17 | ≤ 100 | Cc1nn(C)c2c1N(c1ccc(-c3cccc(C4CCC(=O)NC4=O)c3Cl)cc1)C(=O)CO2 (centres unmarked) [Compound 333]
